Results from patent US20250145641A1, “FUSED BICYCLIC DERIVATIVE, PHARMACEUTICALLY ACCEPTABLE SALT, CRYSTAL FORM THEREOF AND PREPARATION METHOD THEREFOR” (JIANGSU HENGRUI PHARMACEUTICALS CO., LTD., priority 2021, published 2025).

Columns and labels:
Type in all cases: physicochemical
[1] = Long-term/accelerated stability study; settings: for physical and chemical stability (conclusion): 25° C./60 RH and 40° C./75 RH, 6 months
Protocol: The crystal form A of hydrochloride, the crystal form A of methanesulfonate, and the crystal form α of acetate were placed at 25° C./60% RH and 40° C./75% RH to investigate the stability, and the results are shown in Tables 10, 11, and 12 below.

[2] = Hygroscopicity study (dynamic vapor sorption); settings: DVS, 25° C.; for Crystal form after hygroscopicity test: two cycles
Protocol: DVS is dynamic vapor sorption: The detection was carried out using SMS DVS Advantage at 25° C. with a humidity change of 50%-95%-0%-95%-50% in steps of 10% (the last step was 5%) (the specific range of humidity was subject to the corresponding pattern, and most methods were listed here), and the judgment standard was that dm/dt was not greater than 0.002%.
Using Surface Measurement Systems advantage 2, starting at a humidity of 50% at 25° C., the humidity range was 0%-95%, the step was 10%, the judgment standard was that the mass change dM/dT of each gradient was less than 0.002%, the running time TMAX of each humidity gradient was 360 min, with two cycles, and the specific results are shown in Table 8.

[3] = Stability of crystal form, influencing factor experiment; settings: for physical and chemical stability (conclusion): illumination, 40° C. and 60° C., humidity 75% and 92.5%
Protocol: The crystal form A of hydrochloride, the crystal form A of methanesulfonate, and the crystal form α of the acetate were placed flat and left open. The stability of the samples was investigated under conditions of illumination (4500 Lux), high temperature (40° C., 60° C.), and high humidity (RH 75%, RH 92.5%), and the sampling investigation period was 30 days.

CC(C)NCC(C(=O)N1C2CCC1CN(c1ncnc3c1C(C)(C)C(=O)N3)C2)c1ccc(Cl)cc1.Cl (stereo not drawn) [Crystal form A of hydrochloride]
Crystal form ([1]; 25° C./60% RH): Untransformed
Purity % 1 month ([1]; 25° C./60% RH): 99.3%
Purity % 2 month ([1]; 25° C./60% RH): 99.3%
Purity % 3 month ([1]; 25° C./60% RH): 99.2%
Purity % 6 month ([1]; 25° C./60% RH): 99.3%
Purity % Onset ([1]; 25° C./60% RH): 99.3%
physical and chemical stability (conclusion) [1]: good physical and chemical stability
Crystal form ([1]; 40° C./75% RH): Untransformed
Purity % 1 month ([1]; 40° C./75% RH): 99.3%
Purity % 2 month ([1]; 40° C./75% RH): 99.3%
Purity % 3 month ([1]; 40° C./75% RH): 99.2%
Purity % 6 month ([1]; 40° C./75% RH): 99.3%
Purity % Onset ([1]; 40° C./75% RH): 99.3%
mass change 0% RH-80.0% RH [2]: 0.60%
mass change 0.0% RH-95.0% RH [2]: 0.79%
Crystal form after hygroscopicity test [2]: Untransformed
Crystal form ([3]; 40° C., 5 days, open): Untransformed
Purity % ([3]; 40° C., 5 days, open): 99.3%
Crystal form ([3]; 40° C., 10 days, open): Untransformed
Purity % ([3]; 40° C., 10 days, open): 99.3%
Crystal form ([3]; 40° C., 30 days, open): Untransformed
Purity % ([3]; 40° C., 30 days, open): 99.3%
Crystal form ([3]; 60° C., 5 days, open): Untransformed
Purity % ([3]; 60° C., 5 days, open): 99.3%
Crystal form ([3]; 60° C., 10 days, open): Untransformed
Purity % ([3]; 60° C., 10 days, open): 99.3%
Crystal form ([3]; 60° C., 30 days, open): Untransformed
Purity % ([3]; 60° C., 30 days, open): 99.2%
Crystal form ([3]; 75% RH, 5 days, open): Untransformed
Purity % ([3]; 75% RH, 5 days, open): 99.3%
Crystal form ([3]; 75% RH, 10 days, open): Untransformed
Purity % ([3]; 75% RH, 10 days, open): 99.3%
Crystal form ([3]; 75% RH, 30 days, open): Untransformed
Purity % ([3]; 75% RH, 30 days, open): 99.4%
Crystal form ([3]; 92.5% RH, 5 days, open): Untransformed
Purity % ([3]; 92.5% RH, 5 days, open): 99.3%
Crystal form ([3]; 92.5% RH, 10 days, open): Untransformed
Purity % ([3]; 92.5% RH, 10 days, open): 99.3%
Crystal form ([3]; 92.5% RH, 30 days, open): Untransformed
Purity % ([3]; 92.5% RH, 30 days, open): 99.3%
Crystal form ([3]; 4500 Lux, 5 days, open): Untransformed
Purity % ([3]; 4500 Lux, 5 days, open): 99.3%
Crystal form ([3]; 4500 Lux, 10 days, open): Untransformed
Purity % ([3]; 4500 Lux, 10 days, open): 99.3%
Crystal form ([3]; 4500 Lux, 30 days, open): Untransformed
Purity % ([3]; 4500 Lux, 30 days, open): 99.3%
Purity % ([3]; Onset, 0 days): 99.3%
physical and chemical stability (conclusion) ([3]; 30 days): good physical and chemical stability

CC(C)NCC(C(=O)N1C2CCC1CN(c1ncnc3c1C(C)(C)C(=O)N3)C2)c1ccc(Cl)cc1.CS(=O)(=O)O (stereo not drawn) [Crystal form A of methanesulfonate]
Crystal form ([1]; 25° C./60% RH): Untransformed
Purity % 1 month ([1]; 25° C./60% RH): 99.9%
Purity % 2 month ([1]; 25° C./60% RH): 99.8%
Purity % 3 month ([1]; 25° C./60% RH): 99.8%
Purity % 6 month ([1]; 25° C./60% RH): 99.9%
Purity % Onset ([1]; 25° C./60% RH): 99.9%
physical and chemical stability (conclusion) [1]: good physical and chemical stability
Crystal form ([1]; 40° C./75% RH): Untransformed
Purity % 1 month ([1]; 40° C./75% RH): 99.9%
Purity % 2 month ([1]; 40° C./75% RH): 99.8%
Purity % 3 month ([1]; 40° C./75% RH): 99.8%
Purity % 6 month ([1]; 40° C./75% RH): 99.8%
Purity % Onset ([1]; 40° C./75% RH): 99.9%
mass change 0% RH-80.0% RH [2]: 0.31%
mass change 0.0% RH-95.0% RH [2]: 0.43%
Crystal form after hygroscopicity test [2]: Untransformed
Crystal form ([3]; 40° C., 5 days, open): Untransformed
Purity % ([3]; 40° C., 5 days, open): 99.9%
Crystal form ([3]; 40° C., 10 days, open): Untransformed
Purity % ([3]; 40° C., 10 days, open): 99.9%
Crystal form ([3]; 40° C., 30 days, open): Untransformed
Purity % ([3]; 40° C., 30 days, open): 99.9%
Crystal form ([3]; 60° C., 5 days, open): Untransformed
Purity % ([3]; 60° C., 5 days, open): 99.9%
Crystal form ([3]; 60° C., 10 days, open): Untransformed
Purity % ([3]; 60° C., 10 days, open): 99.9%
Crystal form ([3]; 60° C., 30 days, open): Untransformed
Purity % ([3]; 60° C., 30 days, open): 99.9%
Crystal form ([3]; 75% RH, 5 days, open): Untransformed
Purity % ([3]; 75% RH, 5 days, open): 99.9%
Crystal form ([3]; 75% RH, 10 days, open): Untransformed
Purity % ([3]; 75% RH, 10 days, open): 99.9%
Crystal form ([3]; 75% RH, 30 days, open): Untransformed
Purity % ([3]; 75% RH, 30 days, open): 99.9%
Crystal form ([3]; 92.5% RH, 5 days, open): Untransformed
Purity % ([3]; 92.5% RH, 5 days, open): 99.9%
Crystal form ([3]; 92.5% RH, 10 days, open): Untransformed
Purity % ([3]; 92.5% RH, 10 days, open): 99.9%
Crystal form ([3]; 92.5% RH, 30 days, open): Untransformed
Purity % ([3]; 92.5% RH, 30 days, open): 99.9%
Crystal form ([3]; 4500 Lux, 5 days, open): Untransformed
Purity % ([3]; 4500 Lux, 5 days, open): 99.9%
Crystal form ([3]; 4500 Lux, 10 days, open): Untransformed
Purity % ([3]; 4500 Lux, 10 days, open): 99.9%
Crystal form ([3]; 4500 Lux, 30 days, open): Untransformed
Purity % ([3]; 4500 Lux, 30 days, open): 99.9%
Purity % ([3]; Onset, 0 days): 99.9%
physical and chemical stability (conclusion) ([3]; 30 days): good physical and chemical stability

CC(=O)O.CC(C)NCC(C(=O)N1C2CCC1CN(c1ncnc3c1C(C)(C)C(=O)N3)C2)c1ccc(Cl)cc1 (stereo not drawn) [Crystal form α of acetate]
Crystal form ([1]; 25° C./60% RH): Untransformed
Purity % 1 month ([1]; 25° C./60% RH): 99.7%
Purity % 2 month ([1]; 25° C./60% RH): 99.7%
Purity % 3 month ([1]; 25° C./60% RH): 99.7%
Purity % 6 month ([1]; 25° C./60% RH): 99.7%
Purity % Onset ([1]; 25° C./60% RH): 99.7%
physical and chemical stability (conclusion) [1]: good physical and chemical stability
Crystal form ([1]; 40° C./75% RH): Untransformed
Purity % 1 month ([1]; 40° C./75% RH): 99.7%
Purity % 2 month ([1]; 40° C./75% RH): 99.6%
Purity % 3 month ([1]; 40° C./75% RH): 99.6%
Purity % 6 month ([1]; 40° C./75% RH): 99.5%
Purity % Onset ([1]; 40° C./75% RH): 99.7%
mass change 0% RH-80.0% RH [2]: 0.50%
mass change 0.0% RH-95.0% RH [2]: 0.66%
Crystal form after hygroscopicity test [2]: Untransformed
Crystal form ([3]; 40° C., 5 days, open): Untransformed
Purity % ([3]; 40° C., 5 days, open): 99.6%
Crystal form ([3]; 40° C., 10 days, open): Untransformed
Purity % ([3]; 40° C., 10 days, open): 99.6%
Crystal form ([3]; 40° C., 30 days, open): Untransformed
Purity % ([3]; 40° C., 30 days, open): 99.0%
Crystal form ([3]; 60° C., 5 days, open): Untransformed
Purity % ([3]; 60° C., 5 days, open): 99.6%
Crystal form ([3]; 60° C., 10 days, open): Untransformed
Purity % ([3]; 60° C., 10 days, open): 99.5%
Crystal form ([3]; 60° C., 30 days, open): Untransformed
Purity % ([3]; 60° C., 30 days, open): 98.8%
Crystal form ([3]; 75% RH, 5 days, open): Untransformed
Purity % ([3]; 75% RH, 5 days, open): 99.7%
Crystal form ([3]; 75% RH, 10 days, open): Untransformed
Purity % ([3]; 75% RH, 10 days, open): 99.7%
Crystal form ([3]; 75% RH, 30 days, open): Untransformed
Purity % ([3]; 75% RH, 30 days, open): 99.7%
Crystal form ([3]; 92.5% RH, 5 days, open): Untransformed
Purity % ([3]; 92.5% RH, 5 days, open): 99.7%
Crystal form ([3]; 92.5% RH, 10 days, open): Untransformed
Purity % ([3]; 92.5% RH, 10 days, open): 99.7%
Crystal form ([3]; 92.5% RH, 30 days, open): Untransformed
Purity % ([3]; 92.5% RH, 30 days, open): 99.7%
Crystal form ([3]; 4500 Lux, 5 days, open): Untransformed
Purity % ([3]; 4500 Lux, 5 days, open): 99.7%
Crystal form ([3]; 4500 Lux, 10 days, open): Untransformed
Purity % ([3]; 4500 Lux, 10 days, open): 99.7%
Crystal form ([3]; 4500 Lux, 30 days, open): Untransformed
Purity % ([3]; 4500 Lux, 30 days, open): 99.6%
Purity % ([3]; Onset, 0 days): 99.7%
physical and chemical stability (conclusion) ([3]; 30 days): good physical stability and good chemical stability under high humidity and illumination conditions
